Test results reported in patent US10383872B2, “Pharmaceutical compositions comprising phenylaminopyrimidine derivative” (priority 2015, dated 2019).
Values after ≈ are worked out from the molar mass of the structure shown.

Key:
[1] = Solubility of NRC-AN-019 (aqueous at physiological pH; organic solvents); assay type: physicochemical
Text: Its molecular formula is C25H17F6N5O and its relative molecular mass is 517.44.
It is soluble in dimethylformamide, dimethylacetamide and dimethyl sulfoxide. NRC-AN-019 presents specific difficulties in relation to solubility and its formulation development. Oral absorption of such insoluble drugs is the key point to be considered in solving the problem of low bioavailability.

[2] = Oral gavage pharmacokinetics (suspension) in albino wistar rats; conditions: rat, in vivo, oral gavage 40 mg/kg·bw
Text: FIG. 1 illustrates the area under the curve in albino wistar rats after oral administration of NRC-AN-019 “as is” and different solid dispersions in accordance with the invention.
The study discloses better bioavailability characteristics of NRC-AN-019 in the formulation of the present invention than NRC-AN-019 as such. Thus, the optimum bioavailability can be achieved for the therapeutic effectiveness of NRC-AN-019. The maximum concentration and AUC of the formulation of the present invention are substantially higher than that of NRC-AN-019 “as is” due to better absorption characteristics of the solid dispersion of NRC-AN-019 in amorphous or, partially amorphous or, crystalline form. The details of the process of the invention are provided in the examples given below which is provided by way of illustration only and therefore should not be construed to limit the scope of the invention. The preparation of the present invention that can be administered by the oral route is carried out according to the following process.
NRC-AN-019 active pharmaceutical ingredient (API) and the compositions of the present invention were administered through oral gavage at 40 mg/kg·bw in the form of a suspension in albino wistar rats. […] The Cmax and AUC0-∞ for the compositions of the present invention vary between 900 ng/mL to 2000 ng/mL and 7500 ng·hr/mL to 16000 ng·hr/mL respectively.

solubility ([1]; aqueous medium at pH 1.2 (buffer not named), pH 1.2, simulated gastric fluid): 6.6 µg/mL (≈ 12.8 µM) | solubility ([1]; aqueous medium at pH 2.0 (buffer not named), pH 2, simulated gastric fluid): 0.2 µg/mL (≈ 0.387 µM) | solubility in organic solvents ([1]; dimethylformamide, dimethylacetamide and dimethyl sulfoxide): soluble | aqueous solubility ([1]; pH 3.0, 4.0, 5.0, 6.0, 6.8, 7.0, 7.5, 8.0 and water): below detection limit | solubility in water ([1]; water): practically insoluble | Cmax [2]: 33.7 ng/mL | AUC(0-inf) ([2]; read-out: average AUC0-∞): 453 ng·h/mL
Compound: Cc1ccc(NC(=O)c2cc(C(F)(F)F)cc(C(F)(F)F)c2)cc1Nc1nccc(-c2cccnc2)n1 [NRC-AN-019, (3,5-Bis trifluoromethyl)-N-[4-methyl-3-(4-pyridin-3-yl-pyrimidin-2-yl-amino)phenyl]benzamide]
